Source: US9475817B2 (BRISTOL-MYERS SQUIBB COMPANY, priority 2012, dated 2016)
Where a name gives a salt, the structure may show the parent alone.

What was measured:
CK1ε = CK1ε (Homo sapiens (Human), UniProt P49674); experiment: CK1ε kinase assay (Caliper LabChip, fluoresceinated peptide substrate); format: biochemical; conditions: 200 pM CK1ε, 50 μM ATP, 1.5 μM peptide substrate, 22 hours room temperature
Description: (§1) CK1ε and CK1δ Kinase Assays
(§2) The kinase assay was performed in V-bottom 384-well plates. […] The reaction was incubated at room temperature for 22 hours and terminated by adding 45 μl of 35 mM EDTA to each sample. […] Compounds were dissolved at 10 mM in dimethylsulfoxide (DMSO) and evaluated at eleven concentrations. IC50 values were derived by non-linear regression analysis.

CK1δ = CK1δ (Homo sapiens (Human), UniProt P48730); experiment: CK1δ kinase assay (Caliper LabChip, fluoresceinated peptide substrate); format: biochemical; conditions: 200 pM CK1δ, 50 μM ATP, 1.5 μM peptide substrate, 22 hours room temperature
Description: as §1, §2

CK1δ, sequence (P48730 whole entry): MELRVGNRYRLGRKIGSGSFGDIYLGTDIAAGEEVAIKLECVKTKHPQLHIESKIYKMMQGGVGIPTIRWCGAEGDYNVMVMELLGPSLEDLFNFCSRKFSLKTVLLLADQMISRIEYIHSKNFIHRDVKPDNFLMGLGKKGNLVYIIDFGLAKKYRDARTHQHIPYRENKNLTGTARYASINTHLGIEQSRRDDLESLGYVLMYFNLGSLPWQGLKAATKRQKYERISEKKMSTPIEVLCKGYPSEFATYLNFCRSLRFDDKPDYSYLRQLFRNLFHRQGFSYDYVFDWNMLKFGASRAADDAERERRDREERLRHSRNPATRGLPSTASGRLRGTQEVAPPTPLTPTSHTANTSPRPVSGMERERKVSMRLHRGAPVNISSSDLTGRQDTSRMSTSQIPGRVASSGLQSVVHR
CK1ε, sequence (P49674 whole entry): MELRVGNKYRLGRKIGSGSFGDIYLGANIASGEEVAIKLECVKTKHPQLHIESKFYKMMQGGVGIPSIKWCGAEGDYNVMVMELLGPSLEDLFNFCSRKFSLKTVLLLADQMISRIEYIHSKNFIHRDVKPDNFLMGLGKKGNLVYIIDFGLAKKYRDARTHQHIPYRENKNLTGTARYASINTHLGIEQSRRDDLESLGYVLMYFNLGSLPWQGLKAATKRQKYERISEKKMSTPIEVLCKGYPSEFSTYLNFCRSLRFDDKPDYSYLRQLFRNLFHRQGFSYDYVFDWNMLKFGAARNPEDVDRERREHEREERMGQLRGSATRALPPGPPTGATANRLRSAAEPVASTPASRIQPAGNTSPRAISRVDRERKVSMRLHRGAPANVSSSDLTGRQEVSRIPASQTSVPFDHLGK

For `Cn1cc(-c2ccc3nc(NC(=O)c4ccccc4)c(F)n3n2)c(-c2ccc(F)cc2)n1` [Compound 192, N-(3-Fluoro-6-(3-(4-fluorophenyl)-1-methyl-1H-pyrazol-4-yl)imidazo[1,2-b]pyridazin-2-yl)benzamide], the IC50 (CK1ε) was 23.3 nM and the IC50 (CK1δ) was 5.6 nM.
Work on `Cn1cc(-c2ccc3nc(NC(=O)c4ccncc4)c(Br)n3n2)c(-c2ccc(F)cc2)n1` [Compound 193, N-(3-Bromo-6-(3-(4-fluorophenyl)-1-methyl-1H-pyrazol-4-yl)imidazo[1,2-b]pyridazin-2-yl)isonicotinamide] yielded an IC50 (CK1ε) of 102 nM and an IC50 (CK1δ) of 17 nM.
`Cn1cc(-c2ccc3nc(NC(=O)c4ccncc4)c(-c4ccncc4)n3n2)c(-c2ccc(F)cc2)n1` [Compound 194, N-(6-(3-(4-Fluorophenyl)-1-methyl-1H-pyrazol-4-yl)-3-(pyridin-4-yl)imidazo[1,2-b]pyridazin-2-yl)isonicotinamide, 2 TFA] gave an IC50 (CK1ε) of 554 nM and an IC50 (CK1δ) of 97 nM.
Compound `Cc1c(NC(=O)c2ccccc2)nc2ccc(-c3cn(C)nc3-c3ccc(F)cc3)nn12` [Compound 195, N-(6-(3-(4-Fluorophenyl)-1-methyl-1H-pyrazol-4-yl)-3-methylimidazo[1,2-b]pyridazin-2-yl)benzamide, 2 TFA] has an IC50 (CK1ε) of 137 nM and an IC50 (CK1δ) of 54 nM.
Work on `Cn1nc(-c2ccc(F)cc2)c(-c2ccc3nc(NC(=O)c4ccnc(F)c4)cn3n2)c1C1CCOCC1` [Compound 196, 2-Fluoro-N-(6-(3-(4-fluorophenyl)-1-methyl-5-(tetrahydro-2H-pyran-4-yl)-1H-pyrazol-4-yl)imidazo[1,2-b]pyridazin-2-yl)isonicotinamide] yielded an IC50 (CK1ε) of 2 nM and an IC50 (CK1δ) of 0.2 nM.
Work on `Cn1nc(-c2ccc(F)cc2)c(-c2ccc3nc(NC(=O)c4ccncc4)cn3n2)c1C1CCOCC1` [Compound 197, N-(6-(3-(4-Fluorophenyl)-1-methyl-5-(tetrahydro-2H-pyran-4-yl)-1H-pyrazol-4-yl)imidazo[1,2-b]pyridazin-2-yl)isonicotinamide] yielded an IC50 (CK1ε) of 1.8 nM and an IC50 (CK1δ) of 0.3 nM.
With `Cn1nc(-c2ccc(F)cc2)c(-c2ccc3nc(NC(=O)c4ccnc(N5CCOCC5)c4)cn3n2)c1C1CCOCC1` [Compound 198, N-(6-(3-(4-Fluorophenyl)-1-methyl-5-(tetrahydro-2H-pyran-4-yl)-1H-pyrazol-4-yl)imidazo[1,2-b]pyridazin-2-yl)-2-morpholinoisonicotinamide] the IC50 (CK1ε) was 4.8 nM and the IC50 (CK1δ) was 0.5 nM.
With `Cn1nc(-c2ccc(F)cc2)c(-c2ccc3nc(NC(=O)c4cccc(-c5cccnc5)c4)cn3n2)c1C1CCOCC1` [Compound 199, N-(6-(3-(4-Fluorophenyl)-1-methyl-5-(tetrahydro-2H-pyran-4-yl)-1H-pyrazol-4-yl)imidazo[1,2-b]pyridazin-2-yl)-3-(pyridin-3-yl)benzamide] the IC50 (CK1ε) was 1.9 nM and the IC50 (CK1δ) was 0.2 nM.
`Cc1nc(-c2ccncc2)sc1C(=O)Nc1cn2nc(-c3c(-c4ccc(F)cc4)nn(C)c3C3CCOCC3)ccc2n1` [Compound 200, N-(6-(3-(4-Fluorophenyl)-1-methyl-5-(tetrahydro-2H-pyran-4-yl)-1H-pyrazol-4-yl)imidazo[1,2-b]pyridazin-2-yl)-4-methyl-2-(pyridin-4-yl)thiazole-5-carboxamide] was tested, and the IC50 (CK1ε) was 3 nM and the IC50 (CK1δ) was 0.3 nM.
`Cc1nc(-c2cccnc2)sc1C(=O)Nc1cn2nc(-c3c(-c4ccc(F)cc4)nn(C)c3C3CCOCC3)ccc2n1` [Compound 201, N-(6-(3-(4-Fluorophenyl)-1-methyl-5-(tetrahydro-2H-pyran-4-yl)-1H-pyrazol-4-yl)imidazo[1,2-b]pyridazin-2-yl)-4-methyl-2-(pyridin-3-yl)thiazole-5-carboxamide] was tested, and the IC50 (CK1ε) was 2.3 nM and the IC50 (CK1δ) was 0.3 nM.
Compound `Cn1nc(-c2ccc(F)cc2)c(-c2ccc3nc(NC(=O)c4ccnc(F)c4)cn3n2)c1-c1ccncc1` [Compound 202, 2-Fluoro-N-(6-(3-(4-fluorophenyl)-1-methyl-5-(pyridin-4-yl)-1H-pyrazol-4-yl)imidazo[1,2-b]pyridazin-2-yl)isonicotinamide] has an IC50 (CK1ε) of 8.1 nM and an IC50 (CK1δ) of 0.5 nM.
With `Cn1nc(-c2ccc(F)cc2)c(-c2ccc3nc(NC(=O)c4ccnc(N5CCOCC5)c4)cn3n2)c1-c1ccncc1` [Compound 203, N-(6-(3-(4-Fluorophenyl)-1-methyl-5-(pyridin-4-yl)-1H-pyrazol-4-yl)imidazo[1,2-b]pyridazin-2-yl)-2-morpholinoisonicotinamide] the IC50 (CK1ε) was 7.9 nM and the IC50 (CK1δ) was 0.9 nM.
Work on `Cn1nc(-c2ccc(F)cc2)c(-c2ccc3nc(NC(=O)c4ccncc4)cn3n2)c1-c1ccncc1` [Compound 204, N-(6-(3-(4-Fluorophenyl)-1-methyl-5-(pyridin-4-yl)-1H-pyrazol-4-yl)imidazo[1,2-b]pyridazin-2-yl)isonicotinamide] yielded an IC50 (CK1ε) of 3.2 nM and an IC50 (CK1δ) of 0.4 nM.
`Cn1nc(-c2ccc(F)cc2)c(-c2ccc3nc(NC(=O)c4cccc(-c5cccnc5)c4)cn3n2)c1-c1ccncc1` [Compound 205, N-(6-(3-(4-Fluorophenyl)-1-methyl-5-(pyridin-4-yl)-1H-pyrazol-4-yl)imidazo[1,2-b]pyridazin-2-yl)-3-(pyridin-3-yl)benzamide] was tested, and the IC50 (CK1ε) was 9.8 nM and the IC50 (CK1δ) was 0.9 nM.
